This test relates to inflammation induced by methyl nicotinate, inner part of the upper arm. Put plainly: Anti-inflammatory effect test (anti-inflammation assay), chromameter "a" value. In kind it is in vivo, human. The protocol: The anti-inflammatory effect of the natural cell control carrier comprising 3:1 (wt/wt) water-soluble chitosan and elecampane extract according to the present invention was tested as follows. Twenty healthy male and female subjects with no experience of drug hypersensitivity or drug side effect were selected. Methyl nicotinate was used as an inflammation-inducing material. […] Firstly, the initial “a” value of the inner part of the upper arm was determined with a chromameter (Minolta, CR-300). Then, 1.0% aqueous solution of said composition and 0.1% indometacin aqueous solution were closely patched at the test part for 4 hr. After removing the patch, the test part was washed with pure water. After waiting for 1 hr for the temporary inflammation reaction to disappear, “a” value was measured again with the chromameter. After dropping 80 μL of methyl nicotinate diluted to 3 mM with pure water in a filter paper disk with 1 cm of diameter, it was applied to each test part for 1-2 min. After removing the filter paper disk, each test part was washed sufficiently with pure water. After 30 min, “a” value was measured with the chromameter. The anti-inflammatory effect of the natural cell control carrier according to the present invention, indometacin and methyl nicotinate was calculated from the “a” values.

With `COc1ccc2c(c1)c(CC(=O)O)c(C)n2C(=O)c1ccc(Cl)cc1` [indometacin], the “Anti-Inflammatory Effect (%)” value (calculated from "a" values, 1.0% carrier or 0.1% indometacin aqueous solution) is recorded as 41.14%. Moreover, where the note is “chromameter, 30 min after 3 mM methyl nicotinate, 4 hr patch pre-treatment (1.0% carrier or 0.1% indometacin aqueous solution)”, the “"a" Value (n = 20)” value was determined as 6.38.
